SMILES strings stand for the structures.

The target of this experiment is pyruvate kinase (Geobacillus stearothermophilus). Kind of experiment: pyruvate kinase inhibitors and activators, confirmation, biochemical, Geobacillus stearothermophilus (AID 1687). The conditions noted are these: purified enzyme, LDH-coupled NADH absorbance 340 nm.
By AC50 is commonly meant the midpoint of the concentration-response curve, whichever way the signal moves. Turning to `CCn1c2ccccc2n2cc(-c3ccc4c(c3)OCO4)nc12`, the concentration at half-maximal activity (AC50) was 2 µM.

As to `CCN(CC)CCn1c2ccccc2n2cc(-c3ccc4c(c3)OCO4)nc12`, the AC50 was 2.2 µM.

With `C=CCn1c2ccccc2n2cc(-c3ccc4c(c3)OCO4)nc12`, the AC50 was 10.5 µM.

`Cn1c2ccccc2n2cc(-c3ccc4c(c3)OCO4)nc12`: the AC50 is 1 µM.

`COc1cccc(CN2c3cccc4cccc(c34)S2(=O)=O)c1`: the AC50 is 5.5 µM.

As for `O=C(CN1c2cccc3cccc(c23)S1(=O)=O)NCc1ccccc1OC(F)F`, the AC50 is 7.6 µM.

For `NNC(=O)c1ccc(CN2c3cccc4cccc(c34)S2(=O)=O)cc1`, the AC50 was 4.9 µM.

`CN(C)CCn1c2ccccc2n2cc(-c3ccc4c(c3)OCO4)nc12`: the AC50 was 1.7 µM.

For `CN(C)CCCN(C(=O)c1ccc(Cl)s1)c1nc2cc3c(cc2s1)OCO3`, the AC50 was 8.9 µM.

The values are drawn from PubChem BioAssay AID1687.
